PubChem BioAssay (NCI)
Several values for one entry are separate records, joined by “and”; a condition that tells them apart may be missing. Equal entries are not always repeated.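 48-hour exposure; five concentrations; linearly interpolated endpoints. GI50 is the concentration that inhibits growth by half. TGI marks complete inhibition of growth.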

Key:
Assay in all cases: inhibition of tumour cell growth, NCI panel, 48 h
[1] = tested on: MDA-MB-435
[2] = tested on: SF-268 CNS
[3] = tested on: TK-10 renal
[4] = tested on: SK-MEL-5 melanoma
[5] = tested on: SW-620 colon
[6] = tested on: HCC-2998 colon
[7] = tested on: OVCAR-3 ovarian
[8] = tested on: BT-549 breast
[9] = tested on: IGROV1 ovarian
[10] = tested on: SK-OV-3 ovarian

SMILES | GI50 [1] | TGI [1] [µM] | GI50 [2] | TGI [2] [µM] | GI50 [3] [µM] | TGI [3] [µM] | GI50 [4] | TGI [4] [µM] | GI50 [5] [µM] | TGI [5] [µM] | GI50 [6] [µM] | TGI [6] [µM] | GI50 [7] [µM] | TGI [7] [µM] | GI50 [8] [µM] | TGI [8] [µM] | GI50 [9] [µM] | TGI [9] | GI50 [10] [µM] | TGI [10]
Nc1c(C(=O)Nc2ccccc2)sc2nc3c(cc12)CN(Cc1ccccc1)CC3 | 3.43 µM | 71.6 | 5.62 µM | > 100 | 4.09 | 54.7 | 9.58 µM | > 100 | 20.8 | > 100 | 76.1 | > 100 | 11.4 | > 100 | 16.8 | 92.3 | 37.8 | > 100 µM | 3.53 | > 100 µM
COc1cc(C(=O)/C=C/c2cccnc2Nc2ccccc2)cc(OC)c1OC | 0.637 µM | 2.08 | 1.55 µM | 3.09 | 1.82 | 3.33 | 1.34 µM | 2.64 | 0.422 | 1.66 | 1.18 | 2.46 | 0.429 | 1.48 | 1.26 | 2.54 | 2.37 | 5.3 µM | 1.6 | 2.94 µM
COCCNc1cc(NC(=O)N2CCCc3cc(CN4CCN(C)CC4=O)c(C=O)nc32)ncc1C#N | > 50 µM | > 50 | > 50 µM | > 50 | > 50 | > 50 | > 50 µM | > 50 | > 50 | > 50 | > 50 | > 50 | > 50 | > 50 | > 50 | > 50 | > 50 | > 50 µM | > 50 | > 50 µM
OCC1OC(n2cnc3c(=S)nc[nH]c32)C(O)C1O (configuration not stated) | 3.89 µM | > 2500 | > 23.9 µM | > 2500 | 4.37 | > 2500 | 9.5 µM | > 2500 | 7.29 | > 2500 | 2.46 | > 2500 | – | > 2500 | 62.7 | > 2500 | 12.2 | 2490 µM and > 100 µM | 1.25 | 1060 µM and > 47.4 µM
CC(C)(C#N)c1cc(C(=O)Nc2cc(Nc3ncccc3-c3ncnc4nc[nH]c34)ccc2F)cc(C(F)(F)F)c1 | 0.217 µM | > 3.22 | – | > 10 | – | > 4.17 | 0.589 µM | > 1.98 | 0.58 | > 10 | 0.372 | – | – | > 4.1 | – | > 2.3 | 0.521 | > 2.59 µM | > 2.38 | > 10 µM
FC(F)(F)c1ccc(-c2cnc(Cl)nc2NCc2cc(C(F)(F)F)cc(C(F)(F)F)c2)cc1 | 2.96 µM | > 100 | 3.86 µM | > 100 | 3.16 | > 100 | 5.19 µM | > 100 | 3.14 | > 100 | 3.82 | > 100 | 2.79 | 9.25 | 5.59 | > 100 | 7.87 | > 100 µM | 3.4 | > 100 µM
CC(C)N1C(NNC(=O)c2cnccn2)=NS(=O)(=O)c2ccccc21 | > 100 µM | > 100 | > 100 µM | > 100 | > 100 | > 100 | > 100 µM | > 100 | > 100 | > 100 | > 100 | > 100 | > 100 | > 100 | > 100 | > 100 | > 100 | > 100 µM | > 100 | > 100 µM
Cc1ccc2c(c1)C(=O)c1c-2n(CCCBr)c(=O)c2cc([N+](=O)[O-])ccc12 | > 100 µM | > 100 | 46.9 µM | > 100 | > 100 | > 100 | 33 µM | > 100 | 51.6 | > 100 | 11.7 | 77.6 | 71.1 | > 100 | > 100 | > 100 | 6.65 | 65.8 µM | > 100 | > 100 µM
CSC1(SC2=NCCN2)SC2(NCCN2)S1 | – | 31.3 | – | 40.3 | – | 18.6 | – | 35 | – | 51.6 | – | 29.8 | – | 30.6 | – | 54.9 | – | 35.7 µM | – | 42 µM
Nc1n[nH]c2ccc([C@@H]3Nc4ccc5[nH]ncc5c4[C@H]4C5C=CC(C5)[C@@H]34)cc12 (some centres not stated) | 0.0794 µM | 0.444 | 1.36 µM | 31.5 | 12 | > 100 | 0.338 µM | 1.58 | 0.367 | 40.4 | 0.378 | 12.1 | 0.291 | 4.23 | 0.32 | 7.05 | 0.497 | 24.9 µM | 1.03 | 42.8 µM
CCN(CC)c1ccc(C(=N)c2ccc(N(C)C)cc2)cc1 | 0.0962 µM | 1.05 | 0.22 µM | 5.42 | 2.41 | 8.02 | 0.159 µM | 1.94 | 0.174 | 5.63 | 1.85 | 5.69 | 0.156 | 4.07 | 0.227 | 0.966 | 0.949 | 13 µM | 2.15 | 10.4 µM
Clc1nc(Cl)c(-c2ccccc2)c(Cl)n1 | – | 9.55 | – | > 29.9 | – | 22.2 | – | 9.36 | – | 5.34 | – | 5.32 | – | 7.71 | – | 7.09 | – | 14 µM | – | 23.3 µM
CN(C)CC1CCCCCC(CN(C)C)C1=O (configuration not stated) | 2.93 µM | 13.2 | 7.72 µM | 23.4 | 0.852 | 2.13 | 12.2 µM | 25.1 | 1.13 | 2.72 | 17.1 | 33.3 | 1.48 | 5.05 | 3.46 | 15.9 | 15.1 | 36.3 µM | 27.9 | > 93.6 µM
c1ccc(P(CCP(CCP(c2ccccc2)c2ccccc2)c2ccccc2)CCP(c2ccccc2)c2ccccc2)cc1 (configuration not stated) | > 10 µM and 3.67 µM | > 10 | > 10 µM and 3.71 µM | > 10 | – | > 10 | > 10 µM and 4.12 µM | > 10 | – | > 10 | – | 4.52 | > 10 | > 10 | – | > 10 | – | > 10 µM | – | > 10 µM
O=C(CCCSc1nc(-c2ccccc2)cc(-c2ccc(Cl)cc2)n1)NO | 3.11 µM | 14.8 | 1.88 µM | 7.14 | 0.773 | 12.3 | 2.26 µM | 5.45 | 1.66 | 13 | 3.03 | 13.2 | 0.675 | 9.38 | 3.46 | 17.6 | 2.08 | 11.7 µM | 3.12 | 12.4 µM
O=c1cc(N=Nc2ccc(O)cc2)[nH]c(=O)[nH]1 | – | > 100 | – | > 100 | – | > 100 | – | > 100 | – | > 100 | – | > 100 | – | > 100 | – | > 100 | – | > 100 µM | – | > 100 µM
COc1cc2c3c(n(C)c(=O)c2cc1OC)-c1cc2c(cc1/C3=C\C(N)CN)OCO2 (configuration not stated) | 2.56 µM | 17.3 | 0.692 µM | 15 | 1.45 | 26.5 | 2.8 µM | 8.53 | 0.689 | 11.9 | 3.22 | 50 | 1.92 | 6.88 | 0.72 | 4.52 | 0.791 | – | 2.45 | 13.1 µM
